Measured values from the supplement of paper PMC10307832.

How the values were obtained:
Assay in all cases: relative viability (nuclei count vs DMSO), 5 days (fraction); higher = more cells survive
CUDC-101 + Decitabine = compound: C#Cc1cccc(Nc2ncnc3cc(OC)c(OCCCCCCC(=O)NO)cc23)c1 [CUDC-101] + Nc1ncn([C@H]2C[C@H](O)[C@@H](CO)O2)c(=O)n1 [Decitabine] (partner 2 µM)
How it was run: (§1)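 Medians of duplicate plates are given as relative viability. That measure is the nuclei count in treated wells divided by the count in vehicle wells. Counts were taken on 4× images of lung cancer cell lines in 1536-well plates, 5 days after pin-tool dosing the day after seeding with one drug alone or a fixed anchor-drug dose plus five library-drug doses (not always all listed) in √10 steps.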

NVP-TAE684 + Dasatinib = compound: COc1cc(N2CCC(N3CCN(C)CC3)CC2)ccc1Nc1ncc(Cl)c(Nc2ccccc2S(=O)(=O)C(C)C)n1 [NVP-TAE684] + Cc1nc(Nc2ncc(C(=O)Nc3c(C)cccc3Cl)s2)cc(N2CCN(CCO)CC2)n1 [Dasatinib] (partner 0.075 µM)
How it was run: as §1

Vandetanib + Luminespib = compound: COc1cc2/c(=N/c3ccc(Br)cc3F)nc[nH]c2cc1OCC1CCN(C)CC1 [Vandetanib] + CCNC(=O)c1noc(-c2cc(C(C)C)c(O)cc2O)c1-c1ccc(CN2CCOCC2)cc1 [Luminespib] (partner 0.01 µM)
How it was run: as §1

Vandetanib + Pictilisib = compound: COc1cc2/c(=N/c3ccc(Br)cc3F)nc[nH]c2cc1OCC1CCN(C)CC1 [Vandetanib] + CS(=O)(=O)N1CCN(Cc2cc3nc(-c4cccc5[nH]ncc45)nc(N4CCOCC4)c3s2)CC1 [Pictilisib] (partner 1 µM)
How it was run: as §1

UMC-11
relative viability (CUDC-101 + Decitabine; first compound 0.01 µM): 0.761
relative viability (CUDC-101 + Decitabine; first compound 0.03162 µM): 0.477
relative viability (CUDC-101 + Decitabine; first compound 0.1 µM): 0.601
relative viability (CUDC-101 + Decitabine; first compound 0.3162 µM): 0.462
relative viability (CUDC-101 + Decitabine; first compound 1 µM): 0.221
relative viability (NVP-TAE684 + Dasatinib; first compound 0.2 µM): 0.577
relative viability (NVP-TAE684 + Dasatinib; first compound 0.6325 µM): 0.415
relative viability (NVP-TAE684 + Dasatinib; first compound 2 µM): 0.284
relative viability (Vandetanib + Luminespib; first compound 0.02 µM): 1.06
relative viability (Vandetanib + Luminespib; first compound 0.06325 µM): 1.01
relative viability (Vandetanib + Luminespib; first compound 0.2 µM): 0.225
relative viability (Vandetanib + Luminespib; first compound 0.6325 µM): 0.998
relative viability (Vandetanib + Luminespib; first compound 2 µM): 1.03
relative viability (Vandetanib + Pictilisib; first compound 0.02 µM): 0.75
relative viability (Vandetanib + Pictilisib; first compound 0.06325 µM): 0.78
relative viability (Vandetanib + Pictilisib; first compound 0.2 µM): 0.694
relative viability (Vandetanib + Pictilisib; first compound 0.6325 µM): 0.667
relative viability (Vandetanib + Pictilisib; first compound 2 µM): 0.857
